Results published in patent US8952024B2, “Herbicidal pyrimidone derivatives” (E I du Pont de Nemours and Company, priority 2009, dated 2015).

Columns and labels:
Assay type in all cases: in vivo
[1] = test system: barnyardgrass (Echinochloa crus-galli); assay: Test A pre-/postemergence plant response; details: for Barnyardgrass plant response rating: visual injury, 0 to 100 scale (0 no effect, 100 complete control), approx. ten days
How it was run: (§1)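 Plants grown from seed in a loam soil and sand mix received test compounds both as a preemergence soil spray and, at the same time, as a postemergence spray at the one- to two-leaf stage. Injury was judged visually against untreated controls roughly ten days later, 0 meaning no effect and 100 complete control.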

[2] = test system: corn (Zea mays); assay: Test A pre-/postemergence plant response; details: for Corn plant response rating: visual injury, 0 to 100 scale (0 no effect, 100 complete control), approx. ten days
How it was run: as §1

[3] = test system: giant foxtail (Setaria faberii); assay: Test A pre-/postemergence plant response; details: for Foxtail, Giant plant response rating: visual injury, 0 to 100 scale (0 no effect, 100 complete control), approx. ten days
How it was run: as §1

[4] = test system: large crabgrass (Digitaria sanguinalis); assay: Test A pre-/postemergence plant response; details: for Crabgrass, Large plant response rating: visual injury, 0 to 100 scale (0 no effect, 100 complete control), approx. ten days
How it was run: as §1

[5] = test system: morningglory (Ipomoea spp.); assay: Test A pre-/postemergence plant response; details: for Morningglory plant response rating: visual injury, 0 to 100 scale (0 no effect, 100 complete control), approx. ten days
How it was run: as §1

[6] = test system: pigweed (Amaranthus retroflexus); assay: Test A pre-/postemergence plant response; details: for Pigweed plant response rating: visual injury, 0 to 100 scale (0 no effect, 100 complete control), approx. ten days
How it was run: as §1

[7] = test system: velvetleaf (Abutilon theophrasti); assay: Test A pre-/postemergence plant response; details: for Velvetleaf plant response rating: visual injury, 0 to 100 scale (0 no effect, 100 complete control), approx. ten days
How it was run: as §1

[8] = test system: wheat (Triticum aestivum); assay: Test A pre-/postemergence plant response; details: for Wheat plant response rating: visual injury, 0 to 100 scale (0 no effect, 100 complete control), approx. ten days
How it was run: as §1

[9] = test system: barnyardgrass (Echinochloa crus-galli); assay: Test B flooded paddy test; details: for Plant response rating, Flood, Barnyardgrass: 250 g ai/ha, flooded paddy test, visual rating on 0 to 100 scale (0 no effect, 100 complete control) after 13 to 15 days; for Plant response rating, Barnyardgrass: Flood (flooded paddy test), 13 to 15 days; for Barnyardgrass plant response rating: Flood, 31 g ai/ha, scale 0 to 100 (0 no effect, 100 complete control)
How it was run: (§2)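 Visual scores run from 0 (no effect) to 100 (complete control), assigned by comparison with controls 13 to 15 days after treatment. Test compounds went straight into water standing 3 cm above the soil, around plants at the 2-leaf stage kept in a greenhouse.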

[10] = test system: ducksalad (Heteranthera limosa); assay: Test B flooded paddy test; details: for Plant response rating, Flood, Ducksalad: 250 g ai/ha, flooded paddy test, visual rating on 0 to 100 scale (0 no effect, 100 complete control) after 13 to 15 days; for Plant response rating, Ducksalad: Flood (flooded paddy test), 13 to 15 days; for Ducksalad plant response rating: Flood, 31 g ai/ha, scale 0 to 100 (0 no effect, 100 complete control)
How it was run: as §2

[11] = test system: rice (Oryza sativa); assay: Test B flooded paddy test; details: for Plant response rating, Flood, Rice: 250 g ai/ha, flooded paddy test, visual rating on 0 to 100 scale (0 no effect, 100 complete control) after 13 to 15 days; for Plant response rating, Rice: Flood (flooded paddy test), 13 to 15 days; for Rice plant response rating: Flood, 31 g ai/ha, scale 0 to 100 (0 no effect, 100 complete control)
How it was run: as §2

[12] = test system: umbrella sedge (Cyperus difformis); assay: Test B flooded paddy test; details: for Plant response rating, Flood, Sedge, Umbrella: 250 g ai/ha, flooded paddy test, visual rating on 0 to 100 scale (0 no effect, 100 complete control) after 13 to 15 days; for Plant response rating, Sedge, Umbrella: Flood (flooded paddy test), 13 to 15 days; for Sedge, Umbrella plant response rating: Flood, 31 g ai/ha, scale 0 to 100 (0 no effect, 100 complete control)
How it was run: as §2

[13] = Postemergence, 125 g ai/ha, 0 to 100 scale where 0 is no effect and 100 is complete control
[14] = Preemergence, 125 g ai/ha, 0 to 100 scale, 0 = no effect, 100 = complete control
[15] = Preemergence, 500 g ai/ha, 0 to 100 scale, 0 = no effect, 100 = complete control
[16] = 62 g ai/ha, scale of 0 to 100 where 0 is no effect and 100 is complete control
[17] = 125 g ai/ha, scale 0 to 100, 0 is no effect, 100 is complete control

With `O=C1CCCC(O)=C1C(=O)c1cnc(-c2cccc(F)c2)n(-c2ccccc2)c1=O` [Compound 199] the “Plant response rating, Barnyardgrass” value [1, 13] was 90, the “Barnyardgrass plant response rating” value ([1]; Postemergence, 500 g ai/ha) was 100 and the “Plant response rating, Barnyardgrass” value [1, 14] was 20. The “Plant response rating, Barnyardgrass” value [1, 15] was 90, the “Plant response rating, Corn” value [2, 13] was 0 and the “Corn plant response rating” value ([2]; Postemergence, 500 g ai/ha) was 50. For the same compound, the “Plant response rating, Corn” value [2, 14] was 20, the “Plant response rating, Corn” value [2, 15] was 30 and the “Plant response rating, Foxtail, Giant” value [3, 13] was 100. For the same compound, the “Foxtail, Giant plant response rating” value ([3]; Postemergence, 500 g ai/ha) was 100, the “Plant response rating, Foxtail, Giant” value [3, 14] was 60 and the “Plant response rating, Foxtail, Giant” value [3, 15] was 90. For the same compound, the “Plant response rating, Crabgrass, Large” value [4, 13] was 70, the “Crabgrass, Large plant response rating” value ([4]; Postemergence, 500 g ai/ha) was 100 and the “Plant response rating, Crabgrass, Large” value [4, 14] was 60. The “Plant response rating, Crabgrass, Large” value [4, 15] was 100, the “Plant response rating, Morningglory” value [5, 13] was 100 and the “Morningglory plant response rating” value ([5]; Postemergence, 500 g ai/ha) was 100. For the same compound, the “Plant response rating, Morningglory” value [5, 14] was 70, the “Plant response rating, Morningglory” value [5, 15] was 80 and the “Plant response rating, Pigweed” value [6, 13] was 100. For the same compound, the “Pigweed plant response rating” value ([6]; Postemergence, 500 g ai/ha) was 100, the “Plant response rating, Pigweed” value [6, 14] was 80 and the “Plant response rating, Pigweed” value [6, 15] was 100. The “Plant response rating, Velvetleaf” value [7, 13] was 100, the “Velvetleaf plant response rating” value ([7]; Postemergence, 500 g ai/ha) was 100 and the “Plant response rating, Velvetleaf” value [7, 14] was 90. The “Plant response rating, Velvetleaf” value [7, 15] was 100, the “Plant response rating, Wheat” value [8, 13] was 0 and the “Wheat plant response rating” value ([8]; Postemergence, 500 g ai/ha) was 10. For the same compound, the “Plant response rating, Wheat” value [8, 14] was 0, the “Plant response rating, Wheat” value [8, 15] was 20 and the “Plant response rating, Flood, Barnyardgrass” value [9] was 25. The “Plant response rating, Barnyardgrass” value [9, 16] was 0, the “Plant response rating, Barnyardgrass” value [9, 17] was 15 and the “Barnyardgrass plant response rating” value [9] was 0. The “Plant response rating, Flood, Ducksalad” value [10] was 90, the “Plant response rating, Ducksalad” value [10, 16] was 85 and the “Plant response rating, Ducksalad” value [10, 17] was 85. The “Ducksalad plant response rating” value [10] was 85, the “Plant response rating, Flood, Rice” value [11] was 0 and the “Plant response rating, Rice” value [11, 16] was 0. For the same compound, the “Plant response rating, Rice” value [11, 17] was 0, the “Rice plant response rating” value [11] was 0 and the “Plant response rating, Flood, Sedge, Umbrella” value [12] was 85. The “Plant response rating, Sedge, Umbrella” value [12, 16] was 70, the “Plant response rating, Sedge, Umbrella” value [12, 17] was 75 and the “Sedge, Umbrella plant response rating” value [12] was 60.

For `CCn1c(Cc2ccccc2)ncc(C(=O)C2=C(O)CCCC2=O)c1=O` [Compound 200], the “Plant response rating, Barnyardgrass” value [1, 13] was 0, the “Barnyardgrass plant response rating” value ([1]; Postemergence, 500 g ai/ha) was 10 and the “Plant response rating, Barnyardgrass” value [1, 14] was 0. For the same compound, the “Plant response rating, Barnyardgrass” value [1, 15] was 0, the “Plant response rating, Corn” value [2, 13] was 0 and the “Corn plant response rating” value ([2]; Postemergence, 500 g ai/ha) was 0. For the same compound, the “Plant response rating, Corn” value [2, 14] was 0, the “Plant response rating, Corn” value [2, 15] was 0 and the “Plant response rating, Foxtail, Giant” value [3, 13] was 0. For the same compound, the “Foxtail, Giant plant response rating” value ([3]; Postemergence, 500 g ai/ha) was 10, the “Plant response rating, Foxtail, Giant” value [3, 14] was 0 and the “Plant response rating, Foxtail, Giant” value [3, 15] was 0. The “Plant response rating, Crabgrass, Large” value [4, 13] was 10, the “Crabgrass, Large plant response rating” value ([4]; Postemergence, 500 g ai/ha) was 10 and the “Plant response rating, Crabgrass, Large” value [4, 14] was 0. For the same compound, the “Plant response rating, Crabgrass, Large” value [4, 15] was 0, the “Plant response rating, Morningglory” value [5, 13] was 50 and the “Morningglory plant response rating” value ([5]; Postemergence, 500 g ai/ha) was 60. The “Plant response rating, Morningglory” value [5, 14] was 0, the “Plant response rating, Pigweed” value [6, 13] was 60 and the “Pigweed plant response rating” value ([6]; Postemergence, 500 g ai/ha) was 80. The “Plant response rating, Pigweed” value [6, 14] was 0, the “Plant response rating, Pigweed” value [6, 15] was 20 and the “Plant response rating, Velvetleaf” value [7, 13] was 100. For the same compound, the “Velvetleaf plant response rating” value ([7]; Postemergence, 500 g ai/ha) was 100, the “Plant response rating, Velvetleaf” value [7, 14] was 0 and the “Plant response rating, Velvetleaf” value [7, 15] was 60. The “Plant response rating, Wheat” value [8, 13] was 0, the “Wheat plant response rating” value ([8]; Postemergence, 500 g ai/ha) was 0 and the “Plant response rating, Wheat” value [8, 14] was 0. The “Plant response rating, Wheat” value [8, 15] was 0, the “Plant response rating, Flood, Barnyardgrass” value [9] was 38 and the “Plant response rating, Barnyardgrass” value [9, 16] was 0. The “Plant response rating, Barnyardgrass” value [9, 17] was 23, the “Barnyardgrass plant response rating” value [9] was 0 and the “Plant response rating, Flood, Ducksalad” value [10] was 85. The “Plant response rating, Ducksalad” value [10, 16] was 83, the “Plant response rating, Ducksalad” value [10, 17] was 85 and the “Ducksalad plant response rating” value [10] was 38. The “Plant response rating, Flood, Rice” value [11] was 23, the “Plant response rating, Rice” value [11, 16] was 0 and the “Plant response rating, Rice” value [11, 17] was 10. For the same compound, the “Rice plant response rating” value [11] was 0, the “Plant response rating, Flood, Sedge, Umbrella” value [12] was 70 and the “Plant response rating, Sedge, Umbrella” value [12, 16] was 33. For the same compound, the “Plant response rating, Sedge, Umbrella” value [12, 17] was 43 and the “Sedge, Umbrella plant response rating” value [12] was 30.
